Experimental data: patent US20220211692A1, “Modulators of the Cystic Fibrosis Transmembrane Conductance Regulator Protein and Methods of Use” (AbbVie Global Enterprises Ltd., priority 2021, published 2022)
Where two headings read alike, the source gives them in different places.

Key:
[1] = target: T1, F508del/F508del CFTR (Homo sapiens, UniProt P13569, DEL508-508); assay: Trans-Epithelial Current Clamp (TECC) assay using primary human bronchial epithelial cells; format: cell-based; details: for Emax (% Dual): maximum percent activity relative to positive control (co-corrector 0.15 μM + potentiator 0.45 μM = 100%); for EC50: primary hBE cells F508del/F508del, test corrector with co-corrector and potentiator, 18-24 hours, equivalent CFTR current
T1 construct: cells isolated from CF patients with the homozygous mutation; endogenous in cells; host or cells: primary human bronchial epithelial (hBE) cells from CF patients homozygous for F508del
T1 sequence (P13569 with tags, fused parts or gaps DEL508-508): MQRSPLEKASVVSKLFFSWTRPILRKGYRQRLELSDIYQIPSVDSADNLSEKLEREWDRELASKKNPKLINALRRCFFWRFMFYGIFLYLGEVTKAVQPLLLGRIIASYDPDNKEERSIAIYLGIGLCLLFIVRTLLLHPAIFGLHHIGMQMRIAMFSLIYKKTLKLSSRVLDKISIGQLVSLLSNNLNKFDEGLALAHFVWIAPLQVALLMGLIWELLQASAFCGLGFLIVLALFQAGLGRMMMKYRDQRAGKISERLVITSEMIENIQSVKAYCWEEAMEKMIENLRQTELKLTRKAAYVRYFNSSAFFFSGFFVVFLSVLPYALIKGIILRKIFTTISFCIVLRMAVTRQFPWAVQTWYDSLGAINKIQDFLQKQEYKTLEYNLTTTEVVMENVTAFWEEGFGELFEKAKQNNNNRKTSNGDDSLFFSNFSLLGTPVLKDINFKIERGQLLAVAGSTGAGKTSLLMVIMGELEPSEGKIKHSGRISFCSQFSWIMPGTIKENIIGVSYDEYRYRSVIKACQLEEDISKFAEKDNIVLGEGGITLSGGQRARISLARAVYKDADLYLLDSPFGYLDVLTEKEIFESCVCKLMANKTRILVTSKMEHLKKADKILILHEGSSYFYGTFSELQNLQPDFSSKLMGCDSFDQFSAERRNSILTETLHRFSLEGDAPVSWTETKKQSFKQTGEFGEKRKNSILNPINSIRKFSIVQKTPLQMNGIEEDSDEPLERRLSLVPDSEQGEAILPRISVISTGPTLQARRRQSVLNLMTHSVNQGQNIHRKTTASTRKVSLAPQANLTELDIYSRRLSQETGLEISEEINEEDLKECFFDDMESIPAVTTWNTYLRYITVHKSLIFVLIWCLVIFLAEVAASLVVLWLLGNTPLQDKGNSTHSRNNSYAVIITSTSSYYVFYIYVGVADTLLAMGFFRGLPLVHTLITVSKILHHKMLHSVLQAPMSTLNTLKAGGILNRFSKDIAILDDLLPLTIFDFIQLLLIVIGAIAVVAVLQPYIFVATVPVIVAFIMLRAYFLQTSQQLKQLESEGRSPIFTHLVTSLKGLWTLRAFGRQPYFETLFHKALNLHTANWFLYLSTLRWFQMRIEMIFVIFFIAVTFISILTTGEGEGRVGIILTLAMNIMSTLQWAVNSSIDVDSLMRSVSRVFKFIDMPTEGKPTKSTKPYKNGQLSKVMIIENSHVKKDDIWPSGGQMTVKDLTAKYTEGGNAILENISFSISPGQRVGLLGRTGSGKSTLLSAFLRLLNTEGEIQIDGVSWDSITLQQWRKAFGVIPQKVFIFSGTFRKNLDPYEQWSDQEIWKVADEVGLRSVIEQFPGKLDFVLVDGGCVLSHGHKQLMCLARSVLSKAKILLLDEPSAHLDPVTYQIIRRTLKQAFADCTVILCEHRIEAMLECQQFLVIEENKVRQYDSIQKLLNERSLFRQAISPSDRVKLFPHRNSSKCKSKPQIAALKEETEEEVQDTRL
From the text: A cell-based assay was developed using the primary human bronchial epithelial cells (hBE cells) with F508del/F508del CFTR and other mutations.
Primary human bronchial epithelial (hBE) cells from CFTR patients with homozygous F508del/F508del mutation were expanded from 1×10^6 to 250×10^6 cells (Neuberger, T et al., 2011, Methods Mol Biol 741:39-54). For this purpose, cells isolated from CF patients with the homozygous mutation, procured from the CF center tissue procurement and cell culture core at the Marsico Lung Institute at UNC (Randell), the Cystic Fibrosis translational research center at McGill University (University), and Rosalind Franklin University Medical School (RFUMS) were seeded onto 24 well Corning (Cat #3378) filter plates that were coated with 3T3 conditioned media and grown at an air-liquid interface for 35 days using an Ultroser® G supplemented differentiation media. All the primary human bronchial epithelial cells were collected in accordance with institutional review board approval protocols. Apical surface mucus was removed 72 hours before the experiment by incubating the apical surface of the cells for 30 minutes with 3 mM dithiothreitol (DTT) prepared in Dulbecco's phosphate buffered saline (DPBS) with Ca^2+ and Mg^2+. This was followed with aspiration of the mucus from the apical surface along with DPBS. The apical surface was re-washed with phosphate buffered saline (PBS) incubated for 30 minutes followed with aspiration. These hBE cells were then incubated with the desired concentrations of the test C2 corrector compounds along with co-corrector, 4-[(2R,4R)-4-({[1-(2,2-difluoro-1,3-benzodioxol-5-yl)cyclopropyl]carbonyl}amino)-7-(difluoromethoxy)-3,4-dihydro-2H-chromen-2-yl]benzoic acid and potentiator, (5-{3-amino-5-[4-(trifluoromethoxy)benzene-1-sulfonyl]pyridin-2-yl}-1,3,4-oxadiazol-2-yl)methanol, for 18-24 hours at 37° C., 5% CO2. The desired concentrations of the correctors and potentiator compounds were prepared from the 10 mM stocks in differentiation media and were always applied on the basolateral side of the epithelial cells. We also used an assay format where a fixed concentration of potentiator was added chronically along with the corrector compounds. This chronic treatment with the potentiator helped eliminate any interaction that might happen with CFTR modulators (correctors and potentiators) and thereby determined the true efficacy of the modulator combinations reflective of clinical relevance.
The assay uses a Transepithelial Current Clamp (TECC) (Vu, C B et al., 2017; J Med Chem 60:458-473) instrument that can measure the functionality of the mutated channel by measuring the equivalent CFTR current (IEQ) generated by the polarized primary epithelial cells. We used a TECC-24 with a 24-channel electrode manifold allowing for the simultaneous measurement of the transepithelial voltage, VT, and transepithelial resistance, RT, under current clamp conditions, from 24 filters using a 24 well Costar filter plate. The design of the filters in the 24 well filter plates was exactly the same as the design of an individual Transwell filter used in the classical Ussing Chamber with a surface area of 0.33 cm^2. Each measured VT values were corrected for the electrode offset potential measured using buffer alone in a separate plate, and each measured RT values were then corrected for the combined solution series and empty filter resistances. The corrected VT and RT values were then used to calculate the equivalent current, IEQ using Ohm's law (IEQ=VT/RT). The area under the curve (AUC) for the time period between the forskolin peak IEQ response and at the time of bumetanide addition was also calculated using a one-third trapezoid method, in addition to calculating the IEQ. The assay was run in a 24-well format and all 24-wells were measured at the same time point giving a higher throughput for this assay. […]

[2] = target: T2, F508delCFTR (Homo sapiens, UniProt P13569, DEL508-508); assay: Cell Surface Expression-Horse Radish Peroxidase (CSE-HRP) assay in CFBE41o-F508delCFTR-HRP cells; format: cell-based; details: for EC50: CFBE41o-F508delCFTR-HRP cells, 18-24 hours at 33° C.; for Emax / Maximum % activity (with co-corrector): normalized to on-plate positive control; for Emax: read-out: Maximum % activity (without co-corrector)
T2 construct: expressed in transfected cells; host or cells: CFBE41o- human lung derived epithelial cell line, doxycycline-induced expression
T2 sequence (P13569 with tags, fused parts or gaps DEL508-508): as above
Method: A cellular assay for measuring the F508delCFTR cell surface expression after correction with test compounds either without or with a co-corrector (2 μM of 3-[(2R,4R)-4-({[1-(2,2-difluoro-1,3-benzodioxol-5-yl)cyclopropyl]carbonyl}amino)-7-methoxy-3,4-dihydro-2H-chromen-2-yl]benzoic acid), was developed in human lung derived epithelial cell line (CFBE41o-) (Veit G et al, (2012) Mol Biol Cell. 23(21): 4188-4202). The development was achieved by expressing the F508delCFTR mutation along with a horseradish peroxidase (HRP) in the fourth exofacial loop, and then measuring the HRP activity using luminescence readout from these cells, CFBE41o-F508delCFTR-HIRP, that were incubated overnight with the test corrector compounds, either without or with the co-corrector. For this primary assay, the CFBE41o-F508delCFTR-HRP cells were plated in 384-well plates (Greiner Bio-one; Cat 781080) at 4,000 cells/well along with 0.5 μg/mL doxycycline to induce the F508delCFTR-HRP expression and further incubated at 37° C., […] for 68-72 hours. The test compounds were then added either without or with a co-corrector at the required concentrations and further incubated for 18-24 hours at 33° C. The highest concentration tested was 20 μM or 30 μM (GI-1 to GIII-36) with an 8-point concentration response curve using a 3-fold dilution in both the test compound without or with the co-corrector. Three replicate plates were run to determine one EC50. All plates contained negative controls (dimethyl sulfoxide, DMSO) and positive control (2 μM or 3 μM (GI-1 to GIII-36) of 3-[(2R,4R)-4-({[1-(2,2-difluoro-1,3-benzodioxol-5-yl)cyclopropyl]carbonyl}amino)-7-methoxy-3,4-dihydro-2H-chromen-2-yl]benzoic acid) as well as on-plate concentration response of the positive control. Post incubation, the plates were washed 5× times with Dulbecco's phosphate buffered saline (DPBS), followed by the addition of the HRP substrate, luminol (50 μL), and measuring the HRP activity using luminescence readout on EnVision® Multilabel Plate Reader (Perkin Elmer; product number 2104-0010). The raw counts from the experiment were analyzed using Accelrys® Assay Explorer v3.3.
Z′ greater than 0.5 was used as passing quality control criteria for the plates. The Z′ is defined as:
1−[3*SDPositive Control+3*SDNegative Control/Absolute(MeanPositive Control−MeanNegative Control)]
The % activity measured at each of the 8 test concentrations of the test compound added either without or with a co-corrector (2 μM or 3 μM (GI-1 to GIII-36) of 3-[(2R,4R)-4-({[1-(2,2-difluoro-1,3-benzodioxol-5-yl)cyclopropyl]carbonyl}amino)-7-methoxy-3,4-dihydro-2H-chromen-2-yl]benzoic acid) was normalized to the on-plate positive control using the following formulae:
% activity (Test compound without co-corrector)=[(test compound without co-corrector response−DMSO response)/(positive control response−DMSO response)]*100
% activity (Test compound with co-corrector)=[(test compound with co-corrector response−DMSO response)/(positive control response−DMSO response)]*100
The maximum % activity achieved for the test compound either without or with a co-corrector at any tested concentration is presented in Table 3 along with the respective EC50's calculated using the following general sigmoidal curve with variable Hill slope equation (described as Model 42 in the Accelrys® Assay Explorer v3.3 software):
General sigmoidal curve with concentration, response, top, bottom, EC50 and Hill slope. This model describes a sigmoidal curve with an adjustable baseline, a. The equation can be used to fit curves where response is either increasing or decreasing with respect to the independent variable, “x”.

[3] = with co-corrector 2 μM, read-out: EC50 (with co-corrector)
[4] = without co-corrector, read-out: EC50 (without co-corrector)

Row | Emax (% Dual) [1] [% Dual] | EC50 [1] [nM] | EC50 [2, 3] [nM] | EC50 [2, 4] [nM] | Emax ([2]; without co-corrector) [%] | Maximum % activity (with co-corrector) ([2]; with co-corrector 2 μM) [%] | SMILES
1 | 318 | 82.5 | 780 | 1540 | 602 | – | CCOc1ccc(C)cc1[C@@]1(C(=O)NS(=O)(=O)c2cccc3nc(C)ccc23)CCCO1 (single isomer, unassigned) [Example 2]
2 | 283 | 11.7 | 330 | 530 | 509 | – | COc1ccc(C)cc1C1(C(=O)NS(=O)(=O)c2cccc3nc(C)ccc23)CCC(c2ccccc2)O1 (stereo in doubt) [Example 7, (2S,5S)-2-(2-methoxy-5-methylphenyl)-N-(2-methylquinoline-5-sulfonyl)-5-phenyloxolane-2-carboxamide]
3 | 161 | 244 | 2540 | 3490 | 334 | 871 | CCc1ccc(OCC(C)OC)c([C@@]2(C(=O)NS(=O)(=O)c3cccc4nc(C)ccc34)CCCO2)c1 (stereo in doubt) [Example 14, (2R)-2-{5-ethyl-2-[(2S)-2-methoxypropoxy]phenyl}-N-(2-methylquinoline-5-sulfonyl)oxolane-2-carboxamide]
4 | 226 | 1710 | 3780 | 4940 | 233 | 546 | CCOc1ccc(C)cc1[C@]1(C(=O)NS(=O)(=O)c2cccc3nc(C)ccc23)CCCO1 [Example 1, (2S)-2-(2-ethoxy-5-methylphenyl)-N-(2-methylquinoline-5-sulfonyl)oxolane-2-carboxamide]
5 | 242 | 7.8 | 1210 | 2270 | – | – | COc1ccc(C)cc1[C@@]1(C(=O)NS(=O)(=O)c2cccc3nc(C)ccc23)CC(C)(C)CO1 [Example 5, (2R)-2-(2-methoxy-5-methylphenyl)-4,4-dimethyl-N-(2-methylquinoline-5-sulfonyl)oxolane-2-carboxamide]
6 | 235 | 19.5 | 1000 | 1360 | 712 | – | CCOc1ccc(C)cc1[C@@]1(C(=O)NS(=O)(=O)c2cccc3nc(C4CC4)ccc23)CCCO1 [Example 6, (2R)—N-(2-cyclopropylquinoline-5-sulfonyl)-2-(2-ethoxy-5-methylphenyl)oxolane-2-carboxamide]
7 | 339 | 3.2 | 440 | 590 | 702 | – | COc1ccc(C)cc1[C@@]1(C(=O)NS(=O)(=O)c2cccc3nc(C)ccc23)CC[C@@H](c2ccccc2)O1 [Example 8, (2R,5S)-2-(2-methoxy-5-methylphenyl)-N-(2-methylquinoline-5-sulfonyl)-5-phenyloxolane-2-carboxamide]
8 | 152 | > 800 | – | – | – | – | CCc1ccc(Oc2cccnc2OC)c(C2(C(=O)NS(=O)(=O)c3cccc4nc(C)ccc34)CCCO2)c1 (stereo not shown) [Example 18, 2-{5-ethyl-2-[(2-methoxypyridin-3-yl)oxy]phenyl}-N-(2-methylquinoline-5-sulfonyl)oxolane-2-carboxamide]
9 | 263 | 20.8 | – | – | – | – | COc1ccc(C)cc1[C@@]1(C(=O)NS(=O)(=O)c2cccc3nc(C)ccc23)C[C@@H](c2ccccc2)CO1 [Example 32, (2R,4S)-2-(2-methoxy-5-methylphenyl)-N-(2-methylquinoline-5-sulfonyl)-4-phenyloxolane-2-carboxamide]
10 | 284 | 34.6 | – | – | – | – | COc1ccc(C)cc1[C@]1(C(=O)NS(=O)(=O)c2cccc3nc(N)ccc23)CC(C)(C)CO1 [Example 34, (2S)—N-(2-aminoquinoline-5-sulfonyl)-2-(2-methoxy-5-methylphenyl)-4,4-dimethyloxolane-2-carboxamide]
11 | 248 | 443 | – | – | – | – | COc1ccc(C)cc1[C@@]1(C(=O)NS(=O)(=O)c2cccc3nc(N)ccc23)CC(C)(C)CO1 [Example 35, (2R)—N-(2-aminoquinoline-5-sulfonyl)-2-(2-methoxy-5-methylphenyl)-4,4-dimethyloxolane-2-carboxamide]
12 | 216 | 59.9 | – | – | – | – | COc1cccc([C@H]2CO[C@@](C(=O)NS(=O)(=O)c3cccc4nc(C)ccc34)(c3cc(C)ccc3OC)C2)c1 [Example 43, (2R,4S)-2-(2-methoxy-5-methylphenyl)-4-(3-methoxyphenyl)-N-(2-methylquinoline-5-sulfonyl)oxolane-2-carboxamide]
